pIC50, pKd: −log10 of the molar value. Where two headings read alike, the source gives them in different places. Where a SMILES comes first, the peptide text is derived from it.

The test system of test [1] is Kv1.3 channels. The test can be described thus: Whole-cell patch-clamp block of Kv1.3 currents in activated human peripheral T lymphocytes. In kind it is cell-based. How it is done: (§1) Dose-response relationships of the synthetic wild-type toxin and the single and double mutants on Kv1.3 channels The blocking efficiency of the toxins was tested on activated lymphocytes. The remaining current fraction (RCF) was calculated as I/I0, where I and I0 represent the whole-cell current amplitude in the presence and absence of the toxin at the indicated concentrations, respectively. Data points are plotted with error bars representing SEM and were fitted with a Hill-equation to obtain the Kd of the binding.
(§2) Kv1.3 currents were measured in human peripheral T lymphocytes. Heparinized human peripheral venous blood was obtained from healthy volunteers. Mononuclear cells were separated by Ficoll-Hypaque density gradient centrifugation. Collected cells were washed twice with Ca^2+ and Mg^2+ free Hank's solution containing 25 mM HEPES buffer (pH 7.4). Cells were cultured in a 5% CO2 incubator at 37° C. in 24 well culture plates in RPMI-1640 supplements with 10% FCS (Sigma-Aldrich, Hungary) 100 μg/ml penicillin, 100 μg/ml streptomycin and 2 mM L-glutamine at 0.5×10^6/ml density for 3-4 days. The culture medium also contained 2.5 or 5 μg/ml of phytohemagglutinin A (PHA-P, Sigma-Aldrich Kft, Hungary) to increase K^+ channel expression [Bagdany M, et al. Mol Pharmacol 2005; 67:1034-1044].
(§3) Whole-cell currents were measured in voltage-clamped cells using Axopatch 200A and Multiclamp 700B amplifiers connected to a personal computer using Axon Digidata 1200 and 1322A data acquisition hardware, respectively (Molecular Devices Inc., Sunnyvale, Calif.). Series resistance compensation up to 70% was used to minimize voltage errors and achieve good voltage-clamp conditions. […] The measured osmolarity of the external solutions was between 302 and 308 mOsm. […] The measured osmolarity of the internal solutions was approximately 295 mOsm. Bath perfusion around the measured cell with different test solutions was achieved using a gravity-flow perfusion system. […]

The target in test [2] is T1, Kv1.3 channels (Homo sapiens, UniProt P22001).
T1 construct: endogenous in cells
To be noted: natural toxin, Bagdany et al., 2005; cited from earlier work.

The target of another test is T2, hKv1.2 (Homo sapiens, UniProt P16389).
T2 construct: expressed in transfected cells; host or cells: Cos-7 cells, co-transfected with a separate GFP plasmid
To be noted: natural toxin, Bagdany et al., 2005, read-out: Kd for Kv1.2, cited from earlier work.

Test [3] concerns Kv1.3. The test can be described thus: Literature block of Kv1.3 by ADWX-1. An excerpt:
Han, S et al. have applied a structural approach [Han S et al, J Biol Chem 2008; 283(27):19058-19065.] to improve Kv1.3 selectivity of scorpion toxins. The authors started from the BmKTX scorpion toxin (Bhutus martensi) and designed a peptide with three point mutations based on binding studies to the Kv1.3 K channel at the molecular interaction level. Specifically, glycine (G) 11 was substituted with arginine (R), isoleucine (I) 28 with threonine (T) and aspartate (D) 33 with histidine (H) (BmKTX-Arg11Thr28His33 or ADWX-1 in short). […] 2009 231(1): 59-87.].

In test [4] the test system is Kv1.3. To be noted: found by Cahalan and Chandy 2009; read-out: IC50 for block of Kv1.3; cited from earlier work.
Test [5] concerns the target T1, Kv1.3 channels. The test can be described thus: Whole-cell patch-clamp block of Kv1.3 currents in activated human peripheral T lymphocytes. In kind it is cell-based. How it is done: as §1, §2, §3

T1 sequence (P22001 whole entry): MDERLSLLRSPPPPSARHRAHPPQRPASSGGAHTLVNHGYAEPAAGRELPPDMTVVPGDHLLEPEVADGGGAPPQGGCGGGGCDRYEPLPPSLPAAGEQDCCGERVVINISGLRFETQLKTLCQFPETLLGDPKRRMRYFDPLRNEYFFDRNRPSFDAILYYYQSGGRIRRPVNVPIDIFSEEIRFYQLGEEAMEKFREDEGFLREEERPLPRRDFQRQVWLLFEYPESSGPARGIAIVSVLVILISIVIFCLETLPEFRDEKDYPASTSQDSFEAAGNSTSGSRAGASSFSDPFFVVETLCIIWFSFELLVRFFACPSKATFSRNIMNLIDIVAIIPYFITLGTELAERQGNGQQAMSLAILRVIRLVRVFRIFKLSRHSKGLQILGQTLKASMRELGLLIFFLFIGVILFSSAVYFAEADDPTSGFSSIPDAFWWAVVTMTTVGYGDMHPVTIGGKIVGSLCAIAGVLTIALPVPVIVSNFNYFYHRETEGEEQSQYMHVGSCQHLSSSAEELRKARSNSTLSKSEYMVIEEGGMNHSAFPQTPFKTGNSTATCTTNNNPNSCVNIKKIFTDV
T2 sequence (P16389 whole entry): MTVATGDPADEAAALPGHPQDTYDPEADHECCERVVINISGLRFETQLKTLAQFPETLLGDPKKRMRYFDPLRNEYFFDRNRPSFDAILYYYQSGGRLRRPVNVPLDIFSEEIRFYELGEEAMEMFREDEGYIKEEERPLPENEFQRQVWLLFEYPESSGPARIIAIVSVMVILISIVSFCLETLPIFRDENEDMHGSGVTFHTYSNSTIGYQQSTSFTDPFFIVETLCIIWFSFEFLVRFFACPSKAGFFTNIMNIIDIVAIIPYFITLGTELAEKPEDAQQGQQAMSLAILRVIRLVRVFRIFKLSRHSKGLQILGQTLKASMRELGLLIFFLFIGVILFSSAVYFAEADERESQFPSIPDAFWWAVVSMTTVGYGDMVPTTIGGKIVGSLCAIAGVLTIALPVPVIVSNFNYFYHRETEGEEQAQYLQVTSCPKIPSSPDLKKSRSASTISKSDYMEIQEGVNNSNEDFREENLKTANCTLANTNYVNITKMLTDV

For orientation: pKd means −log10 of the Kd, conventionally taken in molar units. In the case of Anuroctoxin [natural toxin], the “selectivity ratio SR=Kd[1.2]/Kd[1.3]” value in the test on Kv1.3 channels [1] was found to be 9. In the test with Kv1.3 channels [1] (ratio of Kd,Kv1.2 and Kd,Kv1.3), the “selectivity for Kv1.3 over Kv1.2” value came to 9 fold. Also, the pKd on Kv1.3 channels [2] is 9.14; at hKv1.2 (listed as Anuroctoxin) it was 8.21; on hKv1.2, 8.21.

The pIC50 is the IC50 on a negative log10 scale, so that one unit is a factor of ten. For the compound BmKTX-Arg11Thr28His33 [ADWX-1], in the test with Kv1.3 [3], the “lower potency of Cahalan/Chandy value versus Han value” worked out at 1000 fold. Moreover, the pIC50 in the test with Kv1.3 [4] is 8.92.

For the compound `CSCC[C@@H]1NC(=O)[C@@H]2CSSC[C@H](NC(=O)[C@H](CCC(=O)O)NC(=O)[C@H](CCCCN)NC(=O)[C@H](CC(N)=O)NC(=O)[C@H](C)NC(=O)[C@H](C)NC(=O)[C@H](C)N)C(=O)N[C@@H]([C@@H](C)O)C(=O)NCC(=O)N3CCC[C@H]3C(=O)N[C@@H](CCC(N)=O)C(=O)N[C@@H](Cc3c[nH]cn3)C(=O)N[C@H]3CSSC[C@H](NC(=O)[C@H](CCCCN)NC(=O)[C@H](CCCNC(=N)N)NC(=O)[C@H](CC(N)=O)NC1=O)C(=O)N[C@@H](CCCCN)C(=O)N[C@H]1CSSC[C@H](NC(=O)[C@H](Cc4ccccc4)NC(=O)[C@H](CC(N)=O)NC(=O)[C@H]([C@@H](C)O)NC3=O)C(=O)N[C@@H](CCCNC(=N)N)C(=O)N[C@@H](CC(=O)O)C(=O)N[C@@H](C)C(=O)N[C@@H](CCCCN)C(=O)N[C@@H](CSSC[C@@H](C(=O)N[C@@H](CCCCN)C(=O)O)NC(=O)[C@H](CC(N)=O)NC(=O)[C@H]([C@@H](C)O)NC1=O)C(=O)N[C@@H]([C@@H](C)O)C(=O)N[C@@H](Cc1c[nH]cn1)C(=O)NCC(=O)N[C@@H](CCCCN)C(=O)N2` [(N-AAAN, K16D, N17A, F32T)] (HELM PEPTIDE1{A.A.A.N.K.E.C.T.G.P.Q.H.C.T.N.F.C.R.D.A.K.C.T.H.G.K.C.M.N.R.K.C.K.C.T.N.C.K}$PEPTIDE1,PEPTIDE1,7:R3-27:R3|PEPTIDE1,PEPTIDE1,13:R3-32:R3|PEPTIDE1,PEPTIDE1,17:R3-34:R3|PEPTIDE1,PEPTIDE1,22:R3-37:R3$$$V2.0; N-terminus and C-terminus assumed; bridges inferred), the pKd on Kv1.3 channels [5] is 6.40.

(Values after patent US9062119B2, “Modified peptide toxins” (University of Debrecen, priority 2011, dated 2015).)
